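The compound was tested at five concentrations on cells cultured in 96-well plates, with a 48-hour exposure period. TGI: concentration producing complete growth inhibition.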
Tests used:
Test in all cases: NCI anticancer screen, dose series, 48 h
[1] = test system: 786-0 renal
[2] = test system: A498 renal
[3] = test system: A549 NSCLC
[4] = test system: ACHN renal
[5] = test system: BT-549 breast
[6] = test system: CAKI-1 renal
[7] = test system: CCRF-CEM leukemia
[8] = test system: COLO 205 colon
[9] = test system: DU-145 prostate
[10] = test system: EKVX NSCLC
[11] = test system: HCC-2998 colon
[12] = test system: HCT-116 colon
[13] = test system: HCT-15 colon
[14] = test system: HL-60(TB) leukemia
[15] = test system: HOP-92 NSCLC
[16] = test system: HS 578T breast
[17] = test system: HT29 colon
[18] = test system: IGROV1 ovarian
[19] = test system: K-562 leukemia
[20] = test system: KM12 colon
[21] = test system: LOX IMVI melanoma
[22] = test system: M14 melanoma
[23] = test system: MALME-3M melanoma
[24] = test system: MCF7 breast
[25] = test system: MDA-MB-231 breast
[26] = test system: MDA-MB-435
[27] = test system: MDA-N
[28] = test system: MOLT-4 leukemia
[29] = test system: NCI-H226 lung
[30] = test system: NCI-H460 lung
[31] = test system: NCI-H522 lung
[32] = test system: NCI/ADR-RES ovarian
[33] = test system: OVCAR-3 ovarian
[34] = test system: OVCAR-4 ovarian
[35] = test system: OVCAR-5 ovarian
[36] = test system: OVCAR-8 ovarian
[37] = test system: PC-3 prostate
[38] = test system: RPMI-8226 leukemia
[39] = test system: RXF 393 renal
[40] = test system: SF-268 CNS
[41] = test system: SF-295 CNS
[42] = test system: SF-539 CNS
[43] = test system: SK-MEL-2 melanoma
[44] = test system: SK-MEL-28 melanoma
[45] = test system: SK-MEL-5 melanoma
[46] = test system: SK-OV-3 ovarian
[47] = test system: SN12C renal
[48] = test system: SNB-19 CNS
[49] = test system: SNB-75 CNS
[50] = test system: SR leukemia
[51] = test system: SW-620 colon
[52] = test system: T-47D breast
[53] = test system: TK-10 renal
[54] = test system: U251 CNS
[55] = test system: UACC-257 melanoma
[56] = test system: UACC-62 melanoma
[57] = test system: HOP-62 NSCLC
[58] = test system: NCI-H23 lung

Cc1ccc(S(=O)(=O)ON2C(=O)c3c(N)c(C#N)c(-c4ccccc4)c(-c4ccccc4)c3C2=O)cc1
TGI [1]: 29.8 µM | TGI [2]: 44.1 µM | TGI [3]: 43 µM | TGI [4]: 31.1 µM | TGI [5]: 34.8 µM | TGI [6]: 29.8 µM | TGI [7]: 27 µM | TGI [8]: 33.1 µM | TGI [9]: 67.1 µM | TGI [10]: 29.1 µM | TGI [11]: 89.1 µM | TGI [12]: 33.1 µM | TGI [13]: 37.6 µM | TGI [14]: 11.7 µM | TGI [15]: 49.4 µM | TGI [16]: > 100 µM | TGI [17]: 42.2 µM | TGI [18]: 30.6 µM | TGI [19]: > 100 µM | TGI [20]: > 100 µM | TGI [21]: 31.1 µM | TGI [22]: 29.5 µM | TGI [23]: 45.8 µM | TGI [24]: 37.4 µM | TGI [25]: 36.4 µM | TGI [26]: 22.1 µM | TGI [27]: 32.2 µM | TGI [28]: 38.7 µM | TGI [29]: 38.7 µM | TGI [30]: > 100 µM | TGI [31]: 33.2 µM | TGI [32]: 62.4 µM | TGI [33]: 27.2 µM | TGI [34]: 52.4 µM | TGI [35]: 60 µM | TGI [36]: 46 µM | TGI [37]: 32.7 µM | TGI [38]: 89.6 µM | TGI [39]: 26.5 µM | TGI [40]: > 100 µM | TGI [41]: 92.8 µM | TGI [42]: 58.2 µM | TGI [43]: 54.2 µM | TGI [44]: 29.4 µM | TGI [45]: 40.6 µM | TGI [46]: > 100 µM | TGI [47]: 40 µM | TGI [48]: > 100 µM | TGI [49]: > 100 µM | TGI [50]: 35.9 µM | TGI [51]: 30.8 µM | TGI [52]: 38.1 µM | TGI [53]: 36.8 µM | TGI [54]: 30.6 µM | TGI [55]: 38 µM | TGI [56]: 33.7 µM

O=C1CCCCC1C(O)(C(F)(F)F)C(F)(F)Cl (centres undefined)
TGI [1]: > 10 µM | TGI [2]: > 10 µM | TGI [3]: > 10 µM | TGI [4]: > 10 µM | TGI [5]: > 10 µM | TGI [6]: > 10 µM | TGI [7]: > 10 µM | TGI [8]: > 10 µM | TGI [9]: > 10 µM | TGI [10]: > 10 µM | TGI [11]: > 10 µM | TGI [12]: > 10 µM | TGI [13]: > 10 µM | TGI [14]: > 10 µM | TGI [57]: > 10 µM | TGI [15]: > 10 µM | TGI [16]: > 10 µM | TGI [17]: > 10 µM | TGI [18]: > 10 µM | TGI [19]: > 10 µM | TGI [20]: > 10 µM | TGI [21]: > 10 µM | TGI [22]: > 10 µM | TGI [23]: > 10 µM | TGI [24]: > 10 µM | TGI [25]: > 10 µM | TGI [26]: > 10 µM | TGI [27]: > 10 µM | TGI [28]: > 10 µM | TGI [29]: > 10 µM | TGI [58]: > 10 µM | TGI [30]: > 10 µM | TGI [31]: > 10 µM | TGI [32]: > 10 µM | TGI [33]: > 10 µM | TGI [34]: > 10 µM | TGI [35]: > 10 µM | TGI [36]: > 10 µM | TGI [37]: > 10 µM | TGI [38]: > 10 µM | TGI [39]: > 10 µM | TGI [40]: > 10 µM | TGI [41]: > 10 µM | TGI [42]: > 10 µM | TGI [43]: > 10 µM | TGI [44]: > 10 µM | TGI [45]: > 10 µM | TGI [46]: > 10 µM | TGI [47]: > 10 µM | TGI [48]: > 10 µM | TGI [49]: > 10 µM | TGI [50]: > 10 µM | TGI [51]: > 10 µM | TGI [52]: > 10 µM | TGI [53]: > 10 µM | TGI [54]: > 10 µM | TGI [55]: > 10 µM | TGI [56]: > 10 µM
